Patent US20190169669A1, “[…] OF […] IDENTIFICATION OF NATURAL LIGAND OF SAID RECEPTOR AND USES THEREOF” (Institut National de la Recherche Agronomique, priority 2016, published 2019)

Tested on: SlitOR5
Assay: Single-sensillum recordings on Drosophila at1 olfactory neurons expressing SlitOR5
Format: cell-based, Spodoptera littoralis
Settings: for significance of response versus solvent alone: n=7, Kruskal-Wallis ANOVA with Dunn's post-hoc test
Procedure: SlitOR5 can be heterologously expressed in vivo in an organism, for example Drosophila melanogaster, using transgenesis (e.g. the Gal4-UAS system in D. melanogaster). SlitOR5 can be expressed in a large part of the endogenous olfactory sensory neurons (OSNs) of the organism (for instance using the ORco promotor) or in a given subset of the OSN population. The modified responses of the antenna or of the targeted OSNs are then recorded using, respectively, electroantennography (EAG) and single sensillum recording (SSR). Some D. melanogaster mutant lines may be used to replace a native Drosophila OR with SlitOR5, such as the ab3A mutant line which allows for expression of SlitOR5 in ORNs usually expressing DmelOR22a (Hallem et al., Cell 2004, 117(7):965-979), and the DmelOr67dGAL4 mutant knock-in line, which allows for expression of SlitOR5 in place of DmelOR67d, in the unique OSN of the atl Drosophila sensilla (Kurtovic et al. Nature 2007, 446(7135):542-546). The candidate agent activity is measured as the antenna depolarization (EAG) or the number of action potential (SSR) generated by stimulation of an air flow containing the candidate agent (typically from 0.1 μg to 100 μg of the candidate agent loaded in the stimulation cartridge). Depolarization and action potential number are compared, respectively, to depolarization and action potential number generated by the agent solvent alone.
The transformant UAS-SlitOR5 balanced fly line was generated by BestGene Inc. (Chino Hills, Calif., USA), using the PhiC31 integrase system. Briefly, recombinant pUAST.attB-SlitOR5 plasmids were injected into embryos of a D. melanogaster line containing an attP insertion site within the second chromosome (genotype y1 M{vas-int.Dm}ZH-2A w*; M{3×P3-RFP.attP′}ZH-51C), leading to non-random integration. To drive expression of SlitOR5 in neurons housed in atl sensilla, the transformant UAS-SlitOR5 line was crossed to a line carrying the mutant knock-in allele Or67d^GAL4 (kindly provided by Dr. Barry Dickson, IMP, Vienna, Austria) to generate a double homozygous line w;UAS-SlitOr5;Or67d^GAL4. Flies were reared on standard cornmeal-yeast-agar medium and kept in a climate- and light-controlled environment (25° C., 12:12 light:dark cycle). The presence of the UAS-SlitO5 transgene was verified by PCR on genomic DNA extracted from two flies, and the expression of SlitOR5 in fly antennae was verified by RT-PCR on total RNA extracted from >100 pairs of antennae.
The response spectrum of SlitOR5 was tested by means of single-sensillum recordings on flies expressing the SlitOR5 transgene in atl neurons, instead of the endogenous receptor DmelOR67d. Two- to 10-day-old male flies were restrained in a plastic pipette tip with only the head protruding from the narrow end. The pipette tip was fixed with dental wax on a microscope glass slide with the ventral side of the fly facing upward. Then, the antenna was gently placed on a piece of glass slide and maintained by placing a glass capillary between the 2nd and 3rd antennal segments. Afterwards, the slides were placed under a light microscope (BX51WI, Olympus, Tokyo, Japan) equipped with a 100× magnification objective. Desiccation of the flies was avoided thanks to a constant 1.5 L·min^−1 flux of charcoal-filtered and humidified air, delivered through a glass tube of a 7 mm diameter, which terminated ca. 1.5 cm from the antenna.
Stimulation cartridges were built by placing a 1 cm^2 filter paper in the large opening end of a Pasteur pipette and dropping 10 μl of an odorant solution onto the paper before closing the pipette with a 1 mL plastic pipette tip. A screening panel of 26 pheromone compounds (see Table 1 for detail) were used at a 1 μg/μl dilution in hexane (10 μg deposited on the filter paper). Pipettes with filter papers containing 10 μL of solvent were used as controls. […]

[1] = response spectrum screen, 10 μg loaded in the stimulus cartridge

SMILES	significance of response versus solvent alone [1]	response of at1 neurons (firing rate), dose-response (dose 1 μg loaded on the stimulus cartridge, n=5) [spikes·s^−1]	response of at1 neurons (firing rate), dose-response (dose 10 μg loaded on the stimulus cartridge, n=5) [spikes·s^−1]	mean net response (firing rate) of SlitOR5-expressing neurons (response spectrum screen, 10 μg loaded in the stimulus cartridge, 500 ms air pulse, n=7, w;UAS-SlitOr5;Or67d^GAL4 flies) [spikes·s^−1]	response of at1 neurons versus solvent alone, dose-response (the two lower doses (dose range 0.01 μg to 10 μg), n=5)
CC/C=C\CCCCCCCCOC(C)=O [Z9-12:OAc, (Z)-9-dodecenyl acetate]	not significant				
CC/C=C\C=C/CCCCCCCCOC(C)=O [Z9,Z11-14:OAc, (Z,Z)-9,11-tetradecadienyl acetate]	not significant				
CC/C=C/C=C\CCCCCCCCOC(C)=O [Z9,E11-14:OAc, (Z,E)-9,11-tetradecadienyl acetate]	significant response	15	43	75	did not significantly differ
CCCC/C=C\CCCCCCCCOC(C)=O [Z9-14:OAc, (Z)-9-tetradecenyl acetate]	not significant				
